Experimental data published in patent US8247211B2, “Glycopeptide antibiotics” (American Cyanamid Company, priority 2001, dated 2012).
Converted amounts (≈) assume the structure as drawn. One block for each compound: values may come before it.

Assays:
Experiment in all cases: In vitro antibacterial evaluation: minimum inhibitory concentration (MIC), broth dilution method
Format in all cases: cell-based
Enterococcus sp. = test system: Enterococcus sp.
Experimental: (§1) The minimum inhibitory concentration (MIC), the lowest concentration of the antibiotic which inhibits growth of the test organism, is determined by the broth dilution method using Muller-Hinton II […] (Baltimore Biological Laboratories) following the recommendations of the National Committee for Clinical Laboratory Standards [Methods for dilution antimicrobial susceptibility tests for bacteria that grow aerobically, approved standard M7-A2, National Committee for Clinical Laboratory Standards, Villanova, Pa].
(§2) An inoculum level of 5×10^5 CFU/mL, and a range of antibiotic concentrations (64-0.06 μg/mL) is used. […] The test organisms include a spectrum of Gram-positive bacteria comprised of Staphylococcus sp., Streptococcus sp. and Enterococcus sp. These organisms include recent clinical isolates that are resistant to methicillin, penicillin and/or vancomycin.

Staphylococcus sp. = conditions: for MIC Staphylococcus aureus-SMITH (GC 4543): strain GC 4543; for MIC Staphylococcus haemolyticus (GC 4546): strain GC 4546; for MIC Coagulase Negative Staphylococcus (GC 4547): strain GC 4547; for MIC Coagulase Negative Staphylococcus (GC 4548): strain GC 4548; for MIC Coagulase Negative Staphylococcus (GC 4549): strain GC 4549; for MIC Coagulase Negative Staphylococcus (GC 4551): strain GC 4551; for MIC Coagulase Negative Staphylococcus (ID-3941): strain ID-3941
Experimental: as §1, §2

Streptococcus sp. = test system: Streptococcus sp.
Experimental: as §1, §2

Escherichia coli = Escherichia coli (GC 4560); 18 hours at 35° C.
Experimental: as §1, §2

[1] = broth dilution, 18 hours at 35° C.
[2] = Enterococcus avium (GC 4558), 18 hours at 35° C.
[3] = broth dilution, inoculum 5×10^5 CFU/mL, 18 hours at 35° C.

MIC Enterococcus faecalis (ATCC 29212) (Enterococcus sp.; strain ATCC 29212): 8 µg/mL (≈ 5.37 µM) | MIC Enterococcus faecalis (GC 2242) (Enterococcus sp.; strain GC 2242): 4 µg/mL (≈ 2.69 µM) | MIC Enterococcus faecium (GC 2243) (Enterococcus sp.; strain GC 2243): 8 µg/mL (≈ 5.37 µM) | MIC Enterococcus faecalis (GC 4552) (Enterococcus sp.; strain GC 4552): 8 µg/mL (≈ 5.37 µM) | MIC Enterococcus faecalis (GC 4553) (Enterococcus sp.; strain GC 4553): 8 µg/mL (≈ 5.37 µM) | MIC Enterococcus faecalis (GC 4554) (Enterococcus sp.; strain GC 4554): 8 µg/mL (≈ 5.37 µM) | MIC Enterococcus faecium (GC 4556) (Enterococcus sp.; strain GC 4556): 8 µg/mL (≈ 5.37 µM) | MIC Enterococcus faecium (GC 4557) (Enterococcus sp.; strain GC 4557): 1 µg/mL (≈ 0.671 µM) | MIC Enterococcus avium (GC 4558) (Enterococcus sp.; strain GC 4558): 4 µg/mL (≈ 2.69 µM) | MIC Staphylococcus aureus (ATCC 29213) (Staphylococcus sp.; [1]): 1 µg/mL (≈ 0.671 µM) | MIC Staphylococcus aureus (GC 1131) (Staphylococcus sp.; [1]): 2 µg/mL (≈ 1.34 µM) | MIC Staphylococcus aureus (GC 4541) (Staphylococcus sp.; [1]): 1 µg/mL (≈ 0.671 µM) | MIC Staphylococcus aureus (GC 4542) (Staphylococcus sp.; [1]): 2 µg/mL (≈ 1.34 µM) | MIC Staphylococcus aureus (GC 4544) (Staphylococcus sp.; [1]): 2 µg/mL (≈ 1.34 µM) | MIC Staphylococcus aureus (GC 4545) (Staphylococcus sp.; [1]): 1 µg/mL (≈ 0.671 µM) | MIC Staphylococcus aureus-SMITH (GC 4543) (Staphylococcus sp.; 18 hours at 35° C.): 2 µg/mL (≈ 1.34 µM) | MIC Staphylococcus aureus-SMITH (GC 4543) (Staphylococcus sp.; [1]): 2 µg/mL (≈ 1.34 µM) | MIC Coagulase Negative Staphylococcus (GC 4547) (Staphylococcus sp.): 1 µg/mL (≈ 0.671 µM) | MIC Coagulase Negative Staphylococcus (GC 4547) (Staphylococcus sp.; [1]): 1 µg/mL (≈ 0.671 µM) | MIC Coagulase Negative Staphylococcus (GC 4548) (Staphylococcus sp.): 0.5 µg/mL (≈ 0.336 µM) | MIC Coagulase Negative Staphylococcus (GC 4548) (Staphylococcus sp.; [1]): 0.5 µg/mL (≈ 0.336 µM) | MIC Coagulase Negative Staphylococcus (GC 4549) (Staphylococcus sp.): 0.5 µg/mL (≈ 0.336 µM) | MIC Coagulase Negative Staphylococcus (GC 4549) (Staphylococcus sp.; [1]): 0.5 µg/mL (≈ 0.336 µM) | MIC Coagulase Negative Staphylococcus (GC 4551) (Staphylococcus sp.): 2 µg/mL (≈ 1.34 µM) | MIC Coagulase Negative Staphylococcus (GC 4551) (Staphylococcus sp.; [1]): 2 µg/mL (≈ 1.34 µM) | MIC Coagulase Negative Staphylococcus (ID-3941) (Staphylococcus sp.): 0.5 µg/mL (≈ 0.336 µM) | MIC Coagulase Negative Staphylococcus (ID-3941) (Staphylococcus sp.; [1]): 0.5 µg/mL (≈ 0.336 µM) | MIC Streptococcus agalactiae (GC 4564) (Streptococcus sp.; strain GC 4564): 0.25 µg/mL (≈ 0.168 µM) | MIC Streptococcus pneumoniae (GC 4565) (Streptococcus sp.; strain GC 4565): <0.12 µg/mL | MIC Streptococcus pyogenes (ID-3187) (Streptococcus sp.; strain ID-3187): 0.25 µg/mL (≈ 0.168 µM)
SMILES: CC(c1ccccc1)C1NC(=O)CNC(=O)C(CO)NC(=O)C(C(O)C2CNC(=N)N2C2OC(CO)C(O)C(O)C2O)NC(=O)C(C(O)C2CNC(=N)N2)NC(=O)C(Cc2ccc(OC3OC(COC(=O)C(c4ccccc4)c4ccccc4)C(OC4OC(CO)C(O)C(O)C4O)C(O)C3O)cc2)NC1=O (stereo not drawn) [Example 96b, Cyclo[glycyl-β-methylphenylalanyl-O-[6-O-(diphenylacetyl)-4-O-hexopyranosylhexopyranosyl]tyrosyl-3-(2-iminoimidazolidin-4-yl)seryl-3-(3-hexopyranosyl-2-iminoimidazolidin-4-yl)serylseryl]]
MIC Staphylococcus haemolyticus (GC 4546) (Staphylococcus sp.): 1 µg/mL (≈ 0.671 µM) | MIC Staphylococcus haemolyticus (GC 4546) (Staphylococcus sp.; [1]): 1 µg/mL (≈ 0.671 µM)

MIC Enterococcus avium (GC 4558) (Enterococcus sp.; [2]): 16 µg/mL (≈ 8.58 µM) | MIC Enterococcus faecalis (ATCC 29212) (Enterococcus sp.; Enterococcus faecalis (ATCC 29212), 18 hours at 35° C.): 64 µg/mL (≈ 34.3 µM) | MIC Enterococcus faecalis (GC 2242) (Enterococcus sp.; Enterococcus faecalis (GC 2242), 18 hours at 35° C.): 64 µg/mL (≈ 34.3 µM) | MIC Enterococcus faecalis (GC 2691) (Enterococcus sp.; Enterococcus faecalis (GC 2691), 18 hours at 35° C.): 16 µg/mL (≈ 8.58 µM) | MIC Enterococcus faecalis (GC 4552) (Enterococcus sp.; Enterococcus faecalis (GC 4552), 18 hours at 35° C.): 64 µg/mL (≈ 34.3 µM) | MIC Enterococcus faecalis (GC 4553) (Enterococcus sp.; Enterococcus faecalis (GC 4553), 18 hours at 35° C.): 32 µg/mL (≈ 17.2 µM) | MIC Enterococcus faecalis (GC 4554) (Enterococcus sp.; Enterococcus faecalis (GC 4554), 18 hours at 35° C.): 64 µg/mL (≈ 34.3 µM) | MIC Enterococcus faecalis (GC 6189) (Enterococcus sp.; Enterococcus faecalis (GC 6189), 18 hours at 35° C.): 16 µg/mL (≈ 8.58 µM) | MIC Enterococcus faecium (GC 2243) (Enterococcus sp.; Enterococcus faecium (GC 2243), 18 hours at 35° C.): 16 µg/mL (≈ 8.58 µM) | MIC Enterococcus faecium (GC 4557) (Enterococcus sp.; Enterococcus faecium (GC 4557), 18 hours at 35° C.): 16 µg/mL (≈ 8.58 µM) | MIC Enterococcus avium (GC 4558) (Enterococcus sp.; [3]): 16 µg/mL (≈ 8.58 µM) | MIC Enterococcus faecalis (ATCC 29212) (Enterococcus sp.; [3]): 64 µg/mL (≈ 34.3 µM) | MIC Enterococcus faecalis (GC 2242) (Enterococcus sp.; [3]): 64 µg/mL (≈ 34.3 µM) | MIC Enterococcus faecalis (GC 2691) (Enterococcus sp.; [3]): 16 µg/mL (≈ 8.58 µM) | MIC Enterococcus faecalis (GC 4552) (Enterococcus sp.; [3]): 64 µg/mL (≈ 34.3 µM) | MIC Enterococcus faecalis (GC 4553) (Enterococcus sp.; [3]): 32 µg/mL (≈ 17.2 µM) | MIC Enterococcus faecalis (GC 4554) (Enterococcus sp.; [3]): 64 µg/mL (≈ 34.3 µM) | MIC Enterococcus faecalis (GC 6189) (Enterococcus sp.; [3]): 16 µg/mL (≈ 8.58 µM) | MIC Enterococcus faecium (GC 2243) (Enterococcus sp.; [3]): 16 µg/mL (≈ 8.58 µM) | MIC Enterococcus faecium (GC 4557) (Enterococcus sp.; [3]): 16 µg/mL (≈ 8.58 µM) | MIC Staphylococcus aureus (ATCC 29213) (Staphylococcus sp.; strain ATCC 29213): 64 µg/mL (≈ 34.3 µM) | MIC Staphylococcus aureus (GC 1131) (Staphylococcus sp.; strain GC 1131): 64 µg/mL (≈ 34.3 µM) | MIC Staphylococcus aureus (GC 3051) (Staphylococcus sp.; strain GC 3051): 64 µg/mL (≈ 34.3 µM) | MIC Staphylococcus aureus (GC 3053) (Staphylococcus sp.; strain GC 3053): 32 µg/mL (≈ 17.2 µM) | MIC Staphylococcus aureus (GC 4541) (Staphylococcus sp.; strain GC 4541): 64 µg/mL (≈ 34.3 µM) | MIC Staphylococcus aureus (GC 4542) (Staphylococcus sp.; strain GC 4542): 64 µg/mL (≈ 34.3 µM) | MIC Staphylococcus aureus-SMITH (GC 4543) (Staphylococcus sp.): 64 µg/mL (≈ 34.3 µM) | MIC Staphylococcus aureus (GC 4544) (Staphylococcus sp.; strain GC 4544): 64 µg/mL (≈ 34.3 µM) | MIC Staphylococcus aureus (GC 4545) (Staphylococcus sp.; strain GC 4545): 64 µg/mL (≈ 34.3 µM) | MIC Coagulase Negative Staphylococcus (GC 4548) (Staphylococcus sp.): 16 µg/mL (≈ 8.58 µM) | MIC Coagulase Negative Staphylococcus (GC 4549) (Staphylococcus sp.): 64 µg/mL (≈ 34.3 µM) | MIC Coagulase Negative Staphylococcus (GC 4551) (Staphylococcus sp.): 32 µg/mL (≈ 17.2 µM) | MIC Coagulase Negative Staphylococcus (GC 6257) (Staphylococcus sp.; strain GC 6257): 32 µg/mL (≈ 17.2 µM) | MIC Streptococcus agalactiae (GC 4564) (Streptococcus sp.; Streptococcus agalactiae (GC 4564), 18 hours at 35° C.): <0.12 µg/mL | MIC Streptococcus pneumoniae (ATCC 6301) (Streptococcus sp.; Streptococcus pneumoniae (ATCC 6301), 18 hours at 35° C.): <0.12 µg/mL | MIC Streptococcus pneumoniae (GC 1894) (Streptococcus sp.; Streptococcus pneumoniae (GC 1894), 18 hours at 35° C.): <0.12 µg/mL | MIC Streptococcus pneumoniae (GC 4565) (Streptococcus sp.; Streptococcus pneumoniae (GC 4565), 18 hours at 35° C.): <0.12 µg/mL | MIC Streptococcus pyogenes (GC 4563) (Streptococcus sp.; Streptococcus pyogenes (GC 4563), 18 hours at 35° C.): 0.5 µg/mL (≈ 0.268 µM) | MIC Streptococcus agalactiae (GC 4564) (Streptococcus sp.; [3]): <0.12 µg/mL | MIC Streptococcus pneumoniae (ATCC 6301) (Streptococcus sp.; [3]): <0.12 µg/mL | MIC Streptococcus pneumoniae (GC 1894) (Streptococcus sp.; [3]): <0.12 µg/mL | MIC Streptococcus pneumoniae (GC 4565) (Streptococcus sp.; [3]): <0.12 µg/mL | MIC Streptococcus pyogenes (GC 4563) (Streptococcus sp.; [3]): 0.5 µg/mL (≈ 0.268 µM)
SMILES: CC(c1ccccc1)C1NC(=O)CNC(=O)C(CO)NC(=O)C(C(O)C2CNC(=N)N2C2OC(CO)C(O)C(O)C2O)NC(=O)C(C(O)C2CNC(=N)N2)NC(=O)C(Cc2ccc(OC3OC(CO)C(OC4OC5COC(c6ccc(C(=O)c7cc(I)c(I)c(I)c7)cc6)OC5C(O)C4O)C(O)C3O)cc2)NC1=O (stereo not drawn) [Example 187]

MIC Escherichia coli (GC 4560) (Escherichia coli): 32 µg/mL (≈ 22 µM) | MIC Enterococcus avium (GC 4558) (Enterococcus sp.; [2]): 64 µg/mL (≈ 44 µM) | MIC Enterococcus avium (GC 4558) (Enterococcus sp.; [3]): 64 µg/mL (≈ 44 µM)
SMILES: CC(c1ccccc1)C1NC(=O)CNC(=O)C(CO)NC(=O)C(C(O)C2CNC(=N)N2C2OC(CO)C(O)C3OC(C)(C)OC32)NC(=O)C(C(O)C2CNC(=N)N2)NC(=O)C(Cc2ccc(OC3OC(CO)C(OC4OC5COC(C)(C)OC5C5OC(C)(C)OC45)C4OC(C)(C)OC34)cc2)NC1=O (stereo not drawn) [Example 229b, Cyclo[glycyl-β-methylphenylalanyl-O-[2,3-O-isopropylidene-4-O-(2,3:4,6-di-O-isopropylidene-hexopyranosyl)hexopyranosyl]tyrosyl-3-(2-iminoimidazolidin-4-yl)seryl-3-[2-imino-(2,3-O-isopropylidenehexopyranosyl)imidazolidin-4-yl]serylseryl]]
